Assay results: patent US8080529B2, “Macrolides with anti-inflammatory activity” (Glaxo Group Limited, priority 2005, dated 2011)
Where two headings read alike, the source gives them in different places.

Tests used:
A549 = experiment: Cytotoxicity assay (MTT), A549 cell line; type: cell-based; details: 24 h
Outline: (§1)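 Viability was read as MTT-formazan absorbance at 490 nm after 0.5-2 h with reagent. This followed 24 h compound exposure (50 μM, 12.5 μM) at 37° C in RPM medium. Result expressed as OD490 treated over untreated cells ×100.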

Hep G2 = experiment: Cytotoxicity assay (MTT), Hep G2 cell line; type: cell-based; details: 24 h
Outline: as §1

TNF-α [1] = experiment: Lipopolysaccharide induced TNF-α production in Balb/cJ mice; type: in vivo; details: Mus musculus, ip, 1.5 h; 10 mg/kg intraperitoneally, 30 min before LPS; 90 min after LPS; read-out: % inhibition of TNF-α production (plasma)
IL-8 = experiment: Inhibition of IL-8 production by stimulated human peripheral blood leukocytes in vitro; type: cell-based; details: Homo sapiens, Leukocyte, read-out: Percentage of inhibition of IL-8 production
Outline: (§2)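 Dextran-sedimented human PBL (3–5×10^6/well) preincubated 2 h at 37 °C with compounds at 50 μM or 10 μM, then stimulated overnight with LPS 2 μg/mL, PMA 1 μg/mL or zymosan 120 μg/mL. Supernatant cytokines quantified by sandwich ELISA; % inhibition versus stimulated untreated controls.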

IL-1α = experiment: Inhibition of IL-1 production by stimulated human peripheral blood leukocytes in vitro; type: cell-based; details: Homo sapiens, Leukocyte, read-out: Percentage of inhibition of IL-1α production
IL-6 = experiment: Inhibition of IL-6 production by stimulated human peripheral blood leukocytes in vitro; type: cell-based; details: Homo sapiens, Leukocyte, read-out: Percentage of inhibition of IL-6 production
Outline: as §2

TNF-α [2] = experiment: Inhibition of TNF-α production by stimulated human peripheral blood leukocytes in vitro; type: cell-based; details: Homo sapiens, Leukocyte, read-out: Percentage of inhibition of TNF-α production
Outline: as §2

[3] = tested on: human peripheral blood mononuclear cells (PBMC); experiment: Effects on human T-cell proliferation in vitro (3H-thymidine incorporation); type: cell-based; details: Homo sapiens, PBMC, read-out: Percentage of inhibition of proliferation of stimulated PBMC
Outline: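 Proliferation of human peripheral blood mononuclear cells (PBMC) was assessed in the presence of test compounds. During the final 18 h of culture each well received 1 μCi of ^3H-thymidine. Cells were then collected onto a 96-well filter with a multiple cell harvester, and ^3H-thymidine incorporation was counted on a TopCount NXT to give percentage inhibition of proliferation.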

Structure (SMILES) | Percentage of inhibition of cell growth (A549; 12.5 μM) [%] | Percentage of inhibition of cell growth (A549; 50 μM) [%] | Percentage of inhibition of cell growth (Hep G2; 12.5 μM) [%] | Percentage of inhibition of cell growth (Hep G2; 50 μM) [%] | inhibition in vivo at 10 mg/kg (TNF-α [1]) [%] | inhibition at 10 µM (IL-8; LPS-stimulated PBL) [%] | inhibition at 10 µM (IL-8; PMA-stimulated PBL) [%] | inhibition at 10 µM (IL-8; zymosan-stimulated PBL) [%] | inhibition at 50 µM (IL-8; LPS-stimulated PBL) [%] | inhibition at 50 µM (IL-8; PMA-stimulated PBL) [%] | inhibition at 50 µM (IL-8; zymosan-stimulated PBL) [%] | inhibition at 10 µM (IL-1α; LPS-stimulated PBL) [%] | inhibition at 10 µM (IL-1α; PMA-stimulated PBL) [%] | inhibition at 10 µM (IL-1α; zymosan-stimulated PBL) [%] | inhibition at 50 µM (IL-1α; LPS-stimulated PBL) [%] | inhibition at 50 µM (IL-1α; PMA-stimulated PBL) [%] | inhibition at 50 µM (IL-1α; zymosan-stimulated PBL) [%] | inhibition at 10 µM (IL-6; LPS-stimulated PBL) [%] | inhibition at 10 µM (IL-6; PMA-stimulated PBL) [%] | inhibition at 10 µM (IL-6; zymosan-stimulated PBL) [%] | other results
CC[C@H]1OC(=O)[C@H](C)[C@@H](O[C@H]2C[C@@](C)(OC)[C@@H](OC(=O)CCN(C)CCO)[C@H](C)O2)[C@H](C)[C@@H](O[C@@H]2O[C@H](C)C[C@H](N(C)C)[C@H]2O)[C@](C)(OC)C[C@@H](C)C(=O)N[C@H](C)[C@@H](O)[C@]1(C)O [Example 15] | 0 | 5 | 3 | 0 | 100 | 38 | 0 | 42 | 94 | 95 | 91 | 80 | 80 | 96 | 98 | 96 | 99 | 39 | 50 | 76 | inhibition at 50 µM (IL-6; LPS-stimulated PBL): 93%; inhibition at 50 µM (IL-6; PMA-stimulated PBL): 95%; inhibition at 50 µM (IL-6; zymosan-stimulated PBL): 96%; inhibition at 10 µM (TNF-α [2]; LPS-stimulated PBL): 61%; inhibition at 10 µM (TNF-α [2]; PMA-stimulated PBL): 82%; inhibition at 10 µM (TNF-α [2]; zymosan-stimulated PBL): 93%; inhibition at 50 µM (TNF-α [2]; LPS-stimulated PBL): 99%; inhibition at 50 µM (TNF-α [2]; PMA-stimulated PBL): 96%; inhibition at 50 µM (TNF-α [2]; zymosan-stimulated PBL): 100%; inhibition at 10 µM ([3]; PHA): 68%; inhibition at 50 µM ([3]; PHA): 99%; inhibition at 10 µM ([3]; PMA + iono.): 53%; inhibition at 50 µM ([3]; PMA + iono.): 98%
CC[C@H]1OC(=O)[C@H](C)[C@@H](O[C@H]2C[C@@](C)(OC)[C@@H](OC(=O)CCN3CCN(CCN(C)C)CC3)[C@H](C)O2)[C@H](C)[C@@H](O[C@@H]2O[C@H](C)C[C@H](N(C)C)[C@H]2O)[C@](C)(OC)C[C@@H](C)C(=O)N[C@H](C)[C@@H](O)[C@]1(C)O [Example 17] | 5 | 2 | 5 | 2 | 84 | 4 | 21 | 20 | 6 | 13 | 13 | 25 | 55 | 58 | 44 | 75 | 90 | 9 | 37 | 33 | inhibition at 50 µM (IL-6; LPS-stimulated PBL): 14%; inhibition at 50 µM (IL-6; PMA-stimulated PBL): 55%; inhibition at 50 µM (IL-6; zymosan-stimulated PBL): 60%; inhibition at 10 µM (TNF-α [2]; LPS-stimulated PBL): 13%; inhibition at 10 µM (TNF-α [2]; PMA-stimulated PBL): 46%; inhibition at 10 µM (TNF-α [2]; zymosan-stimulated PBL): 30%; inhibition at 50 µM (TNF-α [2]; LPS-stimulated PBL): 21%; inhibition at 50 µM (TNF-α [2]; PMA-stimulated PBL): 67%; inhibition at 50 µM (TNF-α [2]; zymosan-stimulated PBL): 46%; inhibition at 10 µM ([3]; PHA): 0%; inhibition at 50 µM ([3]; PHA): 70%; inhibition at 10 µM ([3]; PMA + iono.): 3%; inhibition at 50 µM ([3]; PMA + iono.): 49%
CC[C@H]1OC(=O)[C@H](C)[C@@H](O[C@H]2C[C@@](C)(OC)[C@@H](OC(=O)CCN(C)CCN(CC)CC)[C@H](C)O2)[C@H](C)[C@@H](O[C@@H]2O[C@H](C)C[C@H](N(C)C)[C@H]2O)[C@](C)(OC)C[C@@H](C)C(=O)N[C@H](C)[C@@H](O)[C@]1(C)O [Example 21] | 5 | 4 | 8 | 4 | 61 | 0 | 6 | 0 | 4 | 23 | 13 | 14 | 31 | 58 | 54 | 69 | 86 | 1 | 17 | 22 | inhibition at 50 µM (IL-6; LPS-stimulated PBL): 22%; inhibition at 50 µM (IL-6; PMA-stimulated PBL): 63%; inhibition at 50 µM (IL-6; zymosan-stimulated PBL): 50%; inhibition at 10 µM (TNF-α [2]; LPS-stimulated PBL): 0%; inhibition at 10 µM (TNF-α [2]; PMA-stimulated PBL): 8%; inhibition at 10 µM (TNF-α [2]; zymosan-stimulated PBL): 5%; inhibition at 50 µM (TNF-α [2]; LPS-stimulated PBL): 10%; inhibition at 50 µM (TNF-α [2]; PMA-stimulated PBL): 75%; inhibition at 50 µM (TNF-α [2]; zymosan-stimulated PBL): 39%; inhibition at 10 µM ([3]; PHA): 0%; inhibition at 50 µM ([3]; PHA): 80%; inhibition at 10 µM ([3]; PMA + iono.): 0%; inhibition at 50 µM ([3]; PMA + iono.): 74%
